Results as given in patent US8889878B2, “Haloalky-substituted amides as insecticides and acaricides” (Bayer CropScience AG, priority 2009, dated 2014).

Columns and labels:
[1] = system: armyworm (Spodoptera frugiperda); assay: Spodoptera frugiperda test (SPODFR spray treatment), Example 6; type: in vivo; conditions: application rate 20 g/ha, maize leaf discs sprayed, after 7 days
Protocol: Spodoptera frugiperda Test (SPODFR Spray Treatment)
(§1) • Solvent: 78.0 parts by weight of acetone • 1.5 parts by weight of dimethylformamide • Emulsifier: 0.5 part by weight of alkylaryl polyglycol ether
To prepare an active ingredient formulation, 1 part by weight of active ingredient was mixed with the stated amounts of solvent and emulsifier, and the concentrate was diluted with emulsifier-containing water to the desired concentration. Leaf discs from maize (Zea mays) are sprayed with an active ingredient formulation of the desired concentration and, after drying, populated with caterpillars of the armyworm (Spodoptera frugiperda).
After 7 days, the efficacy in % is determined. 100% means that all caterpillars were killed; 0% means that no caterpillars were killed.

[2] = logP by HPLC on reverse-phase column (EEC Directive 79/831 Annex V.A8); type: physicochemical; conditions: for logP: HPLC-MS
Protocol: The logP values reported in the above Tables and Preparation Examples were determined according to EEC Directive 79/831 Annex V.A8 by HPLC (High Performance Liquid Chromatography) on a reverse-phase column (C18). Temperature 43° C.

[3] = system: mustard beetle (Phaedon cochleariae); assay: Phaedon test (PHAECO spray treatment), Example 7; type: in vivo; conditions: application rate 20 g/ha, china cabbage leaf discs sprayed, after 7 days
In short: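 Spray formulation (acetone/DMF with alkylaryl polyglycol ether, diluted in emulsifier-containing water) applied to Chinese cabbage leaf discs, which were dried and then stocked with mustard beetle larvae. Efficacy scored at 7 days as % larvae killed (100% all, 0% none).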

Boophilus microplus [4] = assay: Boophilus microplus test (BOOPMI injection), Example 11; type: in vivo; conditions: application rate 20 μg/animal, injected into abdomen, after 7 days
In short: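 Adult ticks injected in the abdomen with compound diluted in DMSO, then held in a climate-controlled room. Efficacy in % determined after 7 days from fertile eggs laid; 100% means no tick laid fertile eggs.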

[5] = system: green peach aphid (Myzus persicae); assay: Myzus test (MYZUPE spray treatment), Example 17; type: in vivo; conditions: china cabbage leaf discs sprayed, after 6 days
In short: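 Chinese cabbage leaf discs infested with all aphid stages were sprayed with compound formulated in acetone/dimethylformamide plus alkylaryl polyglycol ether emulsifier, diluted in emulsifier-containing water. Mortality read after 6 days as % efficacy (100% all killed, 0% none killed).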

[6] = system: red spider mite (Tetranychus urticae); assay: Tetranychus test, OP-resistant (TETRUR spray treatment), Example 8; type: in vivo; conditions: application rate 20 g/ha, common bean leaf discs sprayed, after 6 days
In short: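 Bean (Phaseolus vulgaris) leaf discs carrying all stages of OP-resistant Tetranychus urticae sprayed with compound in acetone/DMF with emulsifier, diluted in water to the test concentration. Mortality scored after 6 days as % efficacy (100% = all mites killed).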

Lucilia cuprina larvae = assay: Lucilia cuprina test (LUCICU), Example 3; type: in vivo; conditions: application rate 20 ppm, treated horsemeat, after 2 days
Protocol: Lucilia cuprina Test (LUCICU) • Solvent: dimethyl sulphoxide To prepare an active ingredient formulation, 10 mg of active ingredient are mixed with 0.5 ml of dimethyl sulphoxide, and the concentrate is diluted with water to the desired concentration. Vessels containing horsemeat which has been treated with the active ingredient formulation of the desired concentration are populated with Lucilia cuprina larvae. After 2 days, the kill rate in % is determined. 100% means that all larvae were killed; 0% means that no larvae were killed.

[7] = system: green peach aphid (Myzus persicae); assay: Myzus test (MYZUPE spray treatment), Example 5; type: in vivo; conditions: application rate 20 g/ha, china cabbage leaf discs sprayed, after 6 days
Protocol: Myzus Test (MYZUPE Spray Treatment)
• Solvent: 78 parts by weight of acetone • 1.5 parts by weight of dimethylformamide • Emulsifier: 0.5 part by weight of alkylaryl polyglycol ether
To prepare an active ingredient formulation, 1 part by weight of active ingredient is mixed with the stated amounts of solvent and emulsifier, and the concentrate is diluted with emulsifier-containing water to the desired concentration. Leaf discs from china cabbage (Brassica pekinensis) infested by all stages of the green peach aphid (Myzus persicae) are sprayed with an active ingredient formulation of the desired concentration.
After 6 days, the efficacy in % is determined. 100% means that all aphids were killed; 0% means that no aphids were killed.

Boophilus microplus [8] = assay: Boophilus microplus test (BOOPMI injection), Example 1; type: in vivo; conditions: application rate 20 μg/animal, injected into abdomen, after 7 days
In short: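 Compound in DMSO, diluted with water, injected into the abdomen of engorged ticks, which were then held in a climate-controlled room. Efficacy was scored after 7 days from fertile egg laying, with 100% meaning no tick laid fertile eggs.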

Ctenocephalides felis [9] = assay: Ctenocephalides felis oral (CTECFE), Example 2; type: in vivo; conditions: application rate 20 ppm in citrated cow's blood, after 2 days
Protocol: (§2) Ctenocephalides felis Oral ([…]) • Solvent: 1 part by weight of dimethyl sulphoxide For the purpose of preparing an active ingredient formulation, 10 mg of active ingredient are mixed with 0.5 ml of dimethyl sulphoxide. A portion of the concentrate was diluted with citrated cow's blood and the desired concentration was prepared. 20 unfed adult fleas (Ctenocephalides felis) are placed into a chamber sealed at the top and bottom with gauze. A metal cylinder with its lower end sealed with Parafilm is placed onto the chamber. The cylinder contains the blood-active ingredient preparation, which can be consumed by the fleas through the Parafilm membrane. After 2 days, the kill rate in % is determined. 100% means that all fleas were killed; 0% means that no fleas were killed.

Ctenocephalides felis [10] = assay: Ctenocephalides felis oral (CTECFE), Example 12; type: in vivo; conditions: application rate 100 ppm in citrated cow's blood, after 2 days
Protocol: as §2, with “preparing an appropriate active ingredient” for “preparing an active ingredient”, “the concentrate is diluted with” for “the concentrate was diluted with”, “desired concentration is established. About 20 unfed” for “desired concentration was prepared. 20 unfed”

[11] = system: Boophilus microplus females of the SP-resistant Parkhurst strain; assay: Boophilus microplus test (DIP), Example 10; type: in vivo; conditions: application rate 100 ppm, after 7 days
Protocol: Boophilus microplus Test (DIP)
Test animals: adult engorged Boophilus microplus females of the SP-resistant Parkhurst strain • Solvent: dimethyl sulphoxide
10 mg of active ingredient are dissolved in 0.5 ml of dimethyl sulphoxide. For the purpose of preparing a suitable formulation, the active ingredient solution is diluted with water to the concentration desired in each case.
This active ingredient formulation is pipetted into tubes. 8-10 ticks are transferred into a further tube with holes. The tube is immersed into the active ingredient formulation, and all ticks are completely wetted. After the liquid has run out, the ticks are transferred onto filter discs in plastic dishes and stored in a climate-controlled room. The efficacy is assessed after 7 days by the number of fertile eggs laid. Eggs whose fertility is not outwardly visible are stored in glass tubes in a climate-controlled cabinet until the larvae hatch. Efficacy of 100% means that none of the ticks has laid any fertile eggs.

Musca domestica adults = assay: Musca domestica test (MUSCDO), Example 14; type: in vivo; conditions: application rate 100 ppm, treated sponge, after 2 days
In short: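 Compound dissolved in DMSO and diluted in water to the test concentration, then applied to a sponge in vessels holding adult flies. Percent kill scored after 2 days (100% = all flies dead).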

[12] = system: red spider mite (Tetranychus urticae); assay: Tetranychus test; OP-resistant (TETRUR spray treatment), Example 18; type: in vivo; conditions: Tetranychus urticae, foliar, 144 h; application rate 500 g/ha, common bean leaf discs sprayed, after 6 days; read-out: efficacy in %
Protocol: Tetranychus Test; OP-Resistant (TETRUR Spray Treatment)
as §1
To prepare an appropriate active ingredient formulation, 1 part by weight of active ingredient is mixed with the stated amounts of solvent and emulsifier, and the concentrate is diluted with emulsifier-containing water to the desired concentration. Leaf discs from the common bean (Phaseolus vulgaris) infested by all stages of the red spider mite (Tetranychus urticae) are sprayed with an active ingredient formulation of the desired concentration.
After 6 days, the efficacy in % is determined. 100% means that all spider mites were killed; 0% means that no spider mites were killed.

[13] = system: mustard beetle (Phaedon cochleariae); assay: Phaedon test (PHAECO spray treatment), Example 16; type: in vivo; conditions: Phaedon cochleariae, foliar; application rate 500 g/ha, china cabbage leaf discs sprayed, after the desired time; read-out: efficacy in %
In short: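 Chinese cabbage leaf discs sprayed with acetone/DMF-emulsifier formulation of active ingredient diluted in emulsifier-containing water, then infested with mustard beetle larvae after drying. Efficacy scored as % larval kill (100% = all killed, 0% = none) after the chosen time.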

[14] = system: armyworm (Spodoptera frugiperda); assay: Spodoptera frugiperda test (SPODFR spray treatment), Example 15; type: in vivo; conditions: Spodoptera frugiperda, foliar, 168 h; application rate 500 g/ha, maize leaf discs sprayed, after 7 days; read-out: efficacy in %
In short: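 Maize leaf discs sprayed with active ingredient in acetone/DMF with alkylaryl polyglycol ether emulsifier, diluted in water, then populated with caterpillars after drying. Efficacy in % after 7 days: 100% all caterpillars killed, 0% none.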

[15] = system: Tick nymphs (Amblyomma hebraeum); assay: Amblyomma hebaraeum test (AMBYHE), Example 9; type: in vivo; conditions: application rate 100 ppm, immersed one minute, after 42 days
Protocol: Amblyomma hebaraeum Test (AMBYHE) • Solvent: dimethyl sulphoxide To prepare an appropriate active ingredient formulation, 10 mg of active ingredient are mixed with 0.5 ml of dimethyl sulphoxide, and the concentrate is diluted with water to the desired concentration. Tick nymphs (Amblyomma hebraeum) are placed into perforated plastic cups and immersed in the desired concentration for one minute. The ticks are transferred onto filter papers in a Petri dish and stored in a climate-controlled cabinet. After 42 days, the kill rate in % is determined. 100% means that all ticks were killed; 0% means that no ticks were killed.

Structure (SMILES) | efficacy in % [1] | logP [2] | efficacy in % [3] | efficacy in % (fertile eggs laid) (Boophilus microplus [4]) | efficacy in % [6] | efficacy in % [7] | further results
O=C(/C=C/c1ccc(C(=O)Nc2ccc(Cl)nc2)c(C(F)(F)F)c1)NC(c1cccc(C(F)(F)F)c1)C(F)(F)F (centres unmarked) [Ia-72] | 83% | HPLC-MS: logP = 3.73; mass | 100% | – | – | – | –
O=C(/C=C/c1ccc(C(=O)Nc2ccccn2)c(C(F)(F)F)c1)NC(c1cc(Cl)cc(C(F)(F)F)c1)C(F)(F)F (centres unmarked) [Ia-82] | 83% | HPLC-MS: logP = 4.32; mass | 100% | 100% | – | – | –
O=C(/C=C/c1ccc(C(=O)NCc2ccccn2)c(Br)c1)NC(c1cccc(C(F)(F)F)c1)C(F)(F)F (centres unmarked) [Ia-41] | – | HPLC-MS: logP = 2.76; mass | 100% | 100% | 100% | 100% | efficacy in % ([5]; application rate 500 g/ha): 90%; kill rate in % (efficacy) (Lucilia cuprina larvae): 90%; efficacy in % (fertile eggs laid) (Boophilus microplus [8]): 100%; kill rate in % (efficacy) (Ctenocephalides felis [9]): 100%
O=C(/C=C/c1ccc(C(=O)Nc2ccccn2)c(C(F)(F)F)c1)NC(c1cccc(C(F)(F)F)c1)C(F)(F)F (centres unmarked) [Ia-54] | 100% | HPLC-MS: logP = 3.58; mass | 100% | 100% | 100% | – | kill rate in % (efficacy) (Ctenocephalides felis [10]): 95%
CC(CF)NC(=O)c1ccc(/C=C/C(=O)NC(c2cccc(C(F)(F)F)c2)C(F)(F)F)cc1Cl (centres unmarked) [Ia-112] | – | HPLC-MS: logP = 3.25 mass | 100% | 100% | 100% | 100% | efficacy in % (fertile eggs laid) [11]: 100%
O=C(/C=C/c1ccc(C(=O)NC2CC2)c(C(F)(F)F)c1)NC(c1cccc(C(F)(F)F)c1)C(F)(F)F (centres unmarked) [Ia-23] | 83% | HPLC-MS: logP = 3.18; mass | 100% | 100% | – | – | efficacy in % ([5]; application rate 500 g/ha): 100%; kill rate in % (efficacy) (Lucilia cuprina larvae): 100%; kill rate in % (efficacy) (Musca domestica adults): 100%; efficacy in % (fertile eggs laid) (Boophilus microplus [8]): 100%; kill rate in % (efficacy) (Ctenocephalides felis [9]): 100%
CC(CF)NC(=O)c1ccc(/C=C/C(=O)NC(c2cccc(C(F)(F)F)c2)C(F)(F)F)cc1C(F)(F)F (centres unmarked) [Ia-75, N-(1-Fluoropropan-2-yl)-4-[(1E)-3-oxo-3-({2,2,2-trifluoro-1-[3-(trifluoromethyl)phenyl]-ethyl}amino)prop-1-en-1-yl]-2-(trifluoromethyl)benzamide] | – | – | 100% | – | 100% | 80% | chromatographic logP ([2]; reverse-phase C18 HPLC column, pH 2.7, HPLC, C18 reverse phase, 43° C., acidic range pH 2.7, calibration with alkan-2-ones): 3.37; pest or weed control at 500 g/ha [12]: 100%; pest or weed control at 500 g/ha [13]: 100%; pest or weed control at 500 g/ha [14]: 100%; pest or weed control at 0.02 mg (Boophilus microplus [4]; Rhipicephalus microplus, 168 h, read-out: efficacy in % (fertile eggs laid)): 100%
O=C(/C=C/c1ccc(C(=O)NC2CCC2)c(Cl)c1)NC(c1cccc(C(F)(F)F)c1)C(F)(F)F (centres unmarked) [Ia-162] | – | HPLC-MS: logP = 3.59; mass | – | 100% | – | – | efficacy in % ([5]; application rate 100 g/ha): 100%; kill rate in % (efficacy) [15]: 100%; efficacy in % (fertile eggs laid) [11]: 100%
